{"source": "patent US11298391B1", "about": "“Topical skin health improvement compositions and administrations thereof” (Lorenol Laboratories, Inc., priority 2017, dated 2022)", "tested_on": "PGE-2", "assay": "PGE-2 increase on UVR exposure: control, Retinol and Skin Therapeutic Composition 5 (FIG. 2)", "type": "in vivo", "conditions": "in the presence of UVR", "description": "FIG. 2 illustrates an implementation of the reduction and/or inhibition of skin inflammation as a result of topical application of Skin Therapeutic Composition 5.\nA night serum may be prepare including Skin Therapeutic Composition 5. FIG. 2 illustrates an implementation of the reduction and/or inhibition of skin inflammation as a result of topical application of Skin Therapeutic Composition 5. […] Skin Therapeutic 5 encourages collagen growth and inhibits the overproduction of PGE-2 when exposed to UVR."}
{"smiles": "CC1=C(/C=C/C(C)=C/C=C/C(C)=C/CO)C(C)(C)CCC1", "note": "[Retinol]", "values": [{"measurement": "PGE-2 change", "value": "increase in PGE-2"}]}
